Assay results: US12570656B2, “Purine compounds for treating disorders” (MARVEL BIOTECHNOLOGY, priority 2020, dated 2026)
Values joined by “and” are separate entries in the source; they are usually repeats but may differ in a detail not shown here. Identical values can stand only once. Like-named read-outs stand apart in the source and are kept apart here.

Tests used:
[1] = target: ADORA2A (Homo sapiens, UniProt P29274); test: GPCR screening, calcium flux (calcium mobilization), antagonist format; format: cell-based
Protocol: To ascertain whether the compounds are suitable A2aR antagonists, the compounds of formulae I, II, III, and IV were subjected to GPCR screening using A2aR as the target. The screening was done using the GPCR Screening and Profiling Services by Eurofins DiscoverX Corporation.
The compounds of formulae I, II, III, and IV were screened for GPCR activity using A2aR as the target.
Cell lines were expanded from freezer stocks according to standard procedures. Cells were seeded in a total volume of 20 μL into black-walled, clear-bottom, Poly-D-lysine coated 384-well microplates and incubated at 37° C. for the appropriate time prior to testing.
Assays were performed in 1× Dye Loading Buffer consisting of 1× Dye, 1× Additive A and 2.5 mM Probenecid in HBSS/20 mM Hepes. Probenicid was prepared fresh. Cells were loaded with dye prior to testing. Media was aspirated from cells and replaced with 20 μL Dye Loading Buffer. Cells were incubated for 30-60 minutes at 37° C.
For antagonist determination, cells were pre-incubated with sample followed by agonist challenge at the EC80 concentration. Intermediate dilution of sample stocks was performed to generate 3× sample in assay buffer. After dye loading, cells were removed from the incubator and 10 μL 3× sample was added. Cells were incubated for 30 minutes at room temperature in the dark to equilibrate plate temperature. Vehicle concentration was 1%. Compound antagonist activity was measured on a FLIPR Tetra (MDS). Calcium mobilization was monitored for 2 minutes and 10 μL EC80 agonist in HBSS/20 mM Hepes was added to the cells 5 seconds into the assay.
For antagonist and negative allosteric modulation mode assays, percentage inhibition is calculated using the following formula: % Inhibition=100%×(1−(mean RFU of test sample−mean RFU of vehicle control)/(mean RFU of EC80 control−mean RFU of vehicle control)).
When the calcium was released, the fluorescence of the dye was increased and the increase was measured in real-time.
FIGS. 1 to 6 show percent reacted (Y) versus concentration in μM (X). Compounds were tested in antagonist mode with the requested GPCR Biosensor Assay. For the antagonist assay, data was normalized to the maximal and minimal response observed in the presence of EC80 ligand and vehicle.

[2] = Plasma pharmacokinetics in male CD-1 mice (1 mg/kg i.v. or 3 mg/kg p.o.); conditions: CD-1, mouse, in vivo
Protocol: (§1) Male CD-1 mice were given either bolus 1 mg/kg i.v. or 3 mg/kg p.o. of the indicated compounds and plasma or brain concentrations were measured.
(§2) Where: • C0 concentration extrapolated to time zero following an i.v. dose • tmax time at which maximum concentration is observed • Cmax maximum observed concentration • Apparent t1/2 apparent terminal half-life • AUC0-tlast area under the concentration vs time curve from time 0 to the time of the last measurable concentration • AUC0-inf area under the concentration vs time curve from time 0 to infinity • CL systemic clearance • MRT0-inf mean residence time from time zero to infinity • Vss steady-state volume of distribution • F oral bioavailability=(Dose^iv*AUC^po)/(Dose^po*AUC^iv)*100

[3] = Brain pharmacokinetics and brain/plasma ratio in male CD-1 mice (1 mg/kg i.v.); format: in vivo; conditions: for Brain concentration / concentration at 5 min / concentration at 0.25 h / concentration at 0.5 h / concentration at 1 h / concentration at 2 h / concentration at 4 h / concentration at 6 h / concentration at 8 h: 1 mg/kg bolus i.v.; for concentration at 5 min / concentration at 0.25 h / concentration at 0.5 h / concentration at 1 h / concentration at 2 h / concentration at 4 h / concentration at 6 h / concentration at 8 h: intravenous, 1 mg/kg
Protocol: as §1, §2

[4] = male, CD-1, mouse, iv, brain, i.v. 1 mg/kg

ADORA2A, sequence (P29274 whole entry): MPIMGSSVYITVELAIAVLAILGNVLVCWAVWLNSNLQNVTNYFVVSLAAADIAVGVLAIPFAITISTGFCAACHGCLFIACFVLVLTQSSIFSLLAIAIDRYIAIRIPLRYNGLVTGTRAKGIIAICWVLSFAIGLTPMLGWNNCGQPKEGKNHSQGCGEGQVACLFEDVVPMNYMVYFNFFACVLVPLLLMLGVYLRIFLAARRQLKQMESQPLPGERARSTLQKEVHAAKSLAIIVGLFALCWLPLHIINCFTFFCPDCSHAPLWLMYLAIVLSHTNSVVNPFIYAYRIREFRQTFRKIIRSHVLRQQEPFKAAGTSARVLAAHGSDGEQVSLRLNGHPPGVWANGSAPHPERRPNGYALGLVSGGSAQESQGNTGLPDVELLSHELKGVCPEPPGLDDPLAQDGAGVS

Curve Bottom ([1]; Antagonist format): 5.0984
Curve Top ([1]; Antagonist format): 98
Hill ([1]; Antagonist format): 1.3853
Emax ([1]; read-out: Max Response): 97.1%
bioavailability [2]: 21.5%
AUC(0-inf) ([2]; iv, 1 mg/kg): 1580 ng·h/mL
AUC(0-t) ([2]; iv, 1 mg/kg): 1280 ng·h/mL
Cmax ([2]; iv, 1 mg/kg): 360 ng/mL
MRT inf ([2]; iv, 1 mg/kg): 4.73 h
Tmax ([2]; iv, 1 mg/kg): 0.25 h
Vd ([2]; iv, 1 mg/kg): 3 L/kg
clearance ([2]; iv, 1 mg/kg): 10.6 mL/min/kg
half-life ([2]; iv, 1 mg/kg): 3.39 h
AUC(0-inf) ([2]; po, 3 mg/kg): 1020 ng·h/mL
AUC(0-t) ([2]; po, 3 mg/kg): 988 ng·h/mL
Cmax ([2]; po, 3 mg/kg): 124 ng/mL
MRT inf ([2]; po, 3 mg/kg): 7.55 h
Tmax ([2]; po, 3 mg/kg): 1 h
half-life ([2]; po, 3 mg/kg): 4.44 h
Brain concentration ([3]; 5 min, individual animals 1-3): 383 ng/g and 368 ng/g
Brain concentration ([3]; 0.25 h, individual animals 1-3): 454 ng/g and 394 ng/g
Brain concentration ([3]; 0.5 h, individual animals 1-3): 457 ng/g and 304 ng/g
Brain concentration ([3]; 1 h, individual animals 1-3): 348 ng/g and 354 ng/g
Brain concentration ([3]; 2 h, individual animals 1-3): 239 ng/g and 224 ng/g
Brain concentration ([3]; 4 h, individual animals 1-3): 165 ng/g and 113 ng/g
Brain concentration ([3]; 6 h, individual animals 1-3): 94.1 ng/g and 81.5 ng/g
Brain concentration ([3]; 8 h, individual animals 1-3): 63.9 ng/g and 38.8 ng/g
AUC0-tlast ([3]; brain, i.v. 1 mg/kg): 1315 ng·h/g
AUC(0-inf) ([3]; brain, i.v. 1 mg/kg): 1517 ng·h/g
concentration at 5 min ([3]; male, CD-1, mouse, brain, 5 min, individual animals 1-3, read-out: Brain concentration): 490 ng/g
concentration at 5 min ([3]; male, CD-1, mouse, brain, 5 min, read-out: Brain concentration, Mean): 414 ng/g
concentration at 0.25 h ([3]; male, CD-1, mouse, brain, 0.25 h, individual animals 1-3, read-out: Brain concentration): 379 ng/g
concentration at 0.25 h ([3]; male, CD-1, mouse, brain, 0.25 h, read-out: Brain concentration, Mean): 409 ng/g
concentration at 0.5 h ([3]; male, CD-1, mouse, brain, 0.5 h, individual animals 1-3, read-out: Brain concentration): 379 ng/g
concentration at 0.5 h ([3]; male, CD-1, mouse, brain, 0.5 h, read-out: Brain concentration, Mean): 380 ng/g
concentration at 1 h ([3]; male, CD-1, mouse, brain, 1 h, individual animals 1-3, read-out: Brain concentration): 262 ng/g
concentration at 1 h ([3]; male, CD-1, mouse, brain, 1 h, read-out: Brain concentration, Mean): 321 ng/g
concentration at 2 h ([3]; male, CD-1, mouse, brain, 2 h, individual animals 1-3, read-out: Brain concentration): 212 ng/g
concentration at 2 h ([3]; male, CD-1, mouse, brain, 2 h, read-out: Brain concentration, Mean): 225 ng/g
concentration at 4 h ([3]; male, CD-1, mouse, brain, 4 h, individual animals 1-3, read-out: Brain concentration): 96.9 ng/g
concentration at 4 h ([3]; male, CD-1, mouse, brain, 4 h, read-out: Brain concentration, Mean): 125 ng/g
concentration at 6 h ([3]; male, CD-1, mouse, brain, 6 h, individual animals 1-3, read-out: Brain concentration): 90.1 ng/g
concentration at 6 h ([3]; male, CD-1, mouse, brain, 6 h, read-out: Brain concentration, Mean): 88.6 ng/g
concentration at 8 h ([3]; male, CD-1, mouse, brain, 8 h, individual animals 1-3, read-out: Brain concentration): 45.5 ng/g
concentration at 8 h ([3]; male, CD-1, mouse, brain, 8 h, read-out: Brain concentration, Mean): 49.4 ng/g
Cmax [3, 4]: 414 ng/g
Tmax [3, 4]: 5 min
half-life ([3]; male, CD-1, mouse, iv, brain, i.v. 1 mg/kg, read-out: Apparent t1/2 (converted)): 2.83 h
MRT inf ([3]; male, CD-1, mouse, iv, brain, i.v. 1 mg/kg, read-out: MRT0-inf): 3.94 h
SMILES: CCn1c(=S)c2c(nc(/C=C/c3ccc(OC)c(OC)c3)n2C)n(CC)c1=O [Formula III, 8-[(E)-2-(3,4-dimethoxyphenyl)vinyl]-1,3-diethyl-7-methyl-6-thioxo-purin-2-one]
